In ChEMBL document CHEMBL1129770 (Bioorg Med Chem Lett, 1996):
Starred links: 1 amine or outer side, 2 acyl side, 3 side chain; linkers in the order of their positions; H or OH if unused. Residues, ends and D or L forms follow the SMILES beside them. Suc = O=C(CCC(=O)[*:2])[*:1]

Key:
Bos taurus = species on record: Bos taurus; experiment: Ability to inhibit 3H substance P binding to bovine retina was evaluated; assay type: functional
[1] = molecular target: T1, Endothelin receptor type B (Sus scrofa, UniProt P35463); experiment: Ability to inhibit [125I]ET-3 binding to the Endothelin B receptor from porcine lung membranes was evaluated; assay type: tissue-based
T1 sequence (P35463 whole entry): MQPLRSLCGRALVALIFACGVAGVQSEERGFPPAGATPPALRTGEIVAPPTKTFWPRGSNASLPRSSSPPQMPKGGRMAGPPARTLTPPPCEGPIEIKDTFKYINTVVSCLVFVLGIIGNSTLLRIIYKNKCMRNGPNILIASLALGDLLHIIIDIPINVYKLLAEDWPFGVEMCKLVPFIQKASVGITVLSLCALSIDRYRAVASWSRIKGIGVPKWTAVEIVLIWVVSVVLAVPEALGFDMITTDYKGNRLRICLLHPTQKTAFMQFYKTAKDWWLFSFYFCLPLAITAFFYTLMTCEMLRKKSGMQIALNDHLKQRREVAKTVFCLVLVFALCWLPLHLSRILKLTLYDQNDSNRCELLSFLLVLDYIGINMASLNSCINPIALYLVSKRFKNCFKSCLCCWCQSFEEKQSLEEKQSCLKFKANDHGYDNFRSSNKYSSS

Endothelin-1 receptor = molecular target: T2, Endothelin-1 receptor (Sus scrofa, UniProt Q29010); experiment: Ability to inhibit [125I]ET1 binding to the Endothelin A receptor from porcine lung membranes was evaluated; assay type: tissue-based
T2 sequence (Q29010 whole entry): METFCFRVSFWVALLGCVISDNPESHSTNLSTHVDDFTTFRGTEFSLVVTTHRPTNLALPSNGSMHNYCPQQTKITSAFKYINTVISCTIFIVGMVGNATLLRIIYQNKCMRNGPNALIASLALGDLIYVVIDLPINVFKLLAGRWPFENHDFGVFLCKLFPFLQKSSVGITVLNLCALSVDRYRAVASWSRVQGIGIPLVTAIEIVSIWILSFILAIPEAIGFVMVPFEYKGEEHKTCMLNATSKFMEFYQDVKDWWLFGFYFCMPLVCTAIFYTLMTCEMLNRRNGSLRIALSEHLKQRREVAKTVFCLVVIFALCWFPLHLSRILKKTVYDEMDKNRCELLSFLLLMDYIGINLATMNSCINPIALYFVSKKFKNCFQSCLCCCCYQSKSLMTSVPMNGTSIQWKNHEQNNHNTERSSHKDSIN

| Compound | IC50 (Bos taurus) | Ki [1] | Ki (Endothelin-1 receptor) |
| --- | --- | --- | --- |
| Cc1cc(C)cc(C(=O)N(C)[C@H](Cc2ccccc2)C(=O)NCCc2c[nH]c3ccccc23)c1 | 800 nM | 5 nM | – |
| O=C(N[C@@H](Cc1c[nH]c2ccccc12)C(=O)O)C1CC1c1ccccc1 (stereo not given in full) | – | 16 nM | – |
| Cc1cc(C)cc(C(=O)N(C)[C@H](Cc2ccccc2)C(=O)N[C@@H](Cc2c[nH]c3ccccc23)C(=O)O)c1 | 2000 nM | 36 nM | 11000 nM |
| Cc1cc(C)cc(C(=O)N(C)[C@H](Cc2ccc(-c3ccccc3)cc2)C(=O)N[C@@H](Cc2c[nH]c3ccccc23)C(=O)O)c1 | > 10000 nM | – | – |
| CC[C@H](C)[C@H](NC(=O)[C@H](CC(=O)O)NC(=O)CNC(=O)[C@H](Cc1c[nH]cn1)NC(=O)[C@H](C)NC(=O)[C@H](Cc1ccccc1)NC(=O)[C@H](Cc1ccc(O)cc1)NC(=O)[C@@H](NC(=O)[C@H](C)NC(=O)[C@H](CCC(=O)O)NC(=O)CCC(=O)O)C(C)C)C(=O)N[C@H](C(=O)N[C@@H](Cc1c[nH]c2ccccc12)C(=O)O)[C@@H](C)CC (Suc-EAVYFAHGDIIW-OH) | – | 5.9 nM | > 10000 nM |
| CC[C@H](C)[C@H](NC(=O)[C@H](CC(=O)O)NC(=O)[C@H](CC(C)C)NC(=O)[C@H](Cc1cnc[nH]1)NC(=O)[C@H](C)NC(=O)[C@H](Cc1ccccc1)NC(=O)[C@H](Cc1ccc(O)cc1)NC(=O)[C@@H](NC(=O)[C@H](C)NC(=O)[C@H](CCC(=O)O)NC(=O)CCC(=O)O)C(C)C)C(=O)N[C@H](C(=O)NCC(=O)O)[C@@H](C)CC (Suc-EAVYFAHLDIIG-OH) | – | > 10000 nM | > 10000 nM |
| CC[C@H](C)[C@H](NC(=O)[C@H](CC(=O)O)NC(=O)[C@H](CC(C)C)NC(=O)[C@H](Cc1c[nH]cn1)NC(=O)[C@H](C)NC(=O)[C@H](Cc1ccccc1)NC(=O)[C@H](Cc1ccc(O)cc1)NC(=O)[C@@H](NC(=O)[C@H](C)NC(=O)[C@H](CCC(=O)O)NC(=O)CCC(=O)O)C(C)C)C(=O)N[C@H](C(=O)N[C@@H](Cc1c[nH]c2ccccc12)C(=O)O)[C@@H](C)CC (Suc-EAVYFAHLDIIW-OH) | – | 0.077 nM | 620 nM |
| CC[C@H](C)[C@H](NC(=O)[C@H](CC(=O)O)NC(=O)[C@H](CC(C)C)NC(=O)[C@H](Cc1c[nH]cn1)NC(=O)[C@H](C)NC(=O)CNC(=O)[C@H](Cc1ccc(O)cc1)NC(=O)[C@@H](NC(=O)[C@H](C)NC(=O)[C@H](CCC(=O)O)NC(=O)CCC(=O)O)C(C)C)C(=O)N[C@H](C(=O)N[C@@H](Cc1c[nH]c2ccccc12)C(=O)O)[C@@H](C)CC (Suc-EAVYGAHLDIIW-OH) | – | 260 nM | > 10000 nM |
| CC[C@H](C)[C@H](NC(=O)[C@H](CC(=O)O)NC(=O)[C@H](CC(C)C)NC(=O)[C@H](Cc1cnc[nH]1)NC(=O)[C@@H]1CSSC[C@H](N)C(=O)N[C@@H](CO)C(=O)N[C@H]2CSSC[C@H](NC(=O)[C@H](CCC(=O)O)NC(=O)[C@H](CCCCN)NC(=O)[C@H](CC(=O)O)NC(=O)[C@H](CCSC)NC(=O)[C@H](CC(C)C)NC(=O)[C@H](CO)NC(=O)[C@H](CO)NC2=O)C(=O)N[C@@H](C(C)C)C(=O)N[C@@H](Cc2ccc(O)cc2)C(=O)N[C@@H](Cc2ccccc2)C(=O)N1)C(=O)N[C@H](C(=O)N[C@@H](Cc1c[nH]c2ccccc12)C(=O)O)[C@@H](C)CC [ENDOTHELIN] | – | – | 0.04 nM |

More lines, now with the values ahead:

| IC50 (Bos taurus) | Ki [1] | Ki (Endothelin-1 receptor) | Compound |
| --- | --- | --- | --- |
| – | 0.91 nM | 1300 nM | CC[C@H](C)[C@H](NC(=O)[C@H](CC(=O)O)NC(=O)[C@H](CC(C)C)NC(=O)[C@H](Cc1c[nH]cn1)NC(=O)[C@H](C)NC(=O)[C@H](Cc1ccccc1)NC(=O)[C@H](Cc1ccc(O)cc1)NC(=O)CNC(=O)[C@H](C)NC(=O)[C@H](CCC(=O)O)NC(=O)CCC(=O)O)C(=O)N[C@H](C(=O)N[C@@H](Cc1c[nH]c2ccccc12)C(=O)O)[C@@H](C)CC (Suc-EAGYFAHLDIIW-OH) |
| – | 11 nM | 5000 nM | CC[C@H](C)[C@H](NC(=O)[C@H](CC(=O)O)NC(=O)[C@H](CC(C)C)NC(=O)[C@H](Cc1cnc[nH]1)NC(=O)[C@H](C)NC(=O)[C@H](Cc1ccccc1)NC(=O)CNC(=O)[C@@H](NC(=O)[C@H](C)NC(=O)[C@H](CCC(=O)O)NC(=O)CCC(=O)O)C(C)C)C(=O)N[C@H](C(=O)N[C@@H](Cc1c[nH]c2ccccc12)C(=O)O)[C@@H](C)CC (Suc-EAVGFAHLDIIW-OH) |
| – | 1 nM | 250 nM | CC[C@H](C)[C@H](NC(=O)[C@H](CC(=O)O)NC(=O)[C@H](CC(C)C)NC(=O)CNC(=O)[C@H](C)NC(=O)[C@H](Cc1ccccc1)NC(=O)[C@H](Cc1ccc(O)cc1)NC(=O)[C@@H](NC(=O)[C@H](C)NC(=O)[C@H](CCC(=O)O)NC(=O)CCC(=O)O)C(C)C)C(=O)N[C@H](C(=O)N[C@@H](Cc1c[nH]c2ccccc12)C(=O)O)[C@@H](C)CC (Suc-EAVYFAGLDIIW-OH) |
| – | 180 nM | > 10000 nM | CC[C@H](C)[C@H](NC(=O)CNC(=O)[C@H](CC(=O)O)NC(=O)[C@H](CC(C)C)NC(=O)[C@H](Cc1cnc[nH]1)NC(=O)[C@H](C)NC(=O)[C@H](Cc1ccccc1)NC(=O)[C@H](Cc1ccc(O)cc1)NC(=O)[C@@H](NC(=O)[C@H](C)NC(=O)[C@H](CCC(=O)O)NC(=O)CCC(=O)O)C(C)C)C(=O)N[C@@H](Cc1c[nH]c2ccccc12)C(=O)O (Suc-EAVYFAHLDGIW-OH) |
| – | 5200 nM | > 10000 nM | CC[C@H](C)[C@H](NC(=O)[C@H](CC(=O)O)NC(=O)[C@H](CC(C)C)NC(=O)[C@H](Cc1cnc[nH]1)NC(=O)[C@H](C)NC(=O)[C@H](Cc1ccccc1)NC(=O)[C@H](Cc1ccc(O)cc1)NC(=O)[C@@H](NC(=O)[C@H](C)NC(=O)[C@H](CCC(=O)O)NC(=O)CCC(=O)O)C(C)C)C(=O)NCC(=O)N[C@@H](Cc1c[nH]c2ccccc12)C(=O)O (Suc-EAVYFAHLDIGW-OH) |
| – | 0.25 nM | 96 nM | CC[C@H](C)[C@H](NC(=O)CNC(=O)[C@H](CC(C)C)NC(=O)[C@H](Cc1cnc[nH]1)NC(=O)[C@H](C)NC(=O)[C@H](Cc1ccccc1)NC(=O)[C@H](Cc1ccc(O)cc1)NC(=O)[C@@H](NC(=O)[C@H](C)NC(=O)[C@H](CCC(=O)O)NC(=O)CCC(=O)O)C(C)C)C(=O)N[C@H](C(=O)N[C@@H](Cc1c[nH]c2ccccc12)C(=O)O)[C@@H](C)CC (Suc-EAVYFAHLGIIW-OH) |
| – | 5.3 nM | 2000 nM | CC[C@H](C)[C@H](NC(=O)[C@H](CC(=O)O)NC(=O)[C@H](CC(C)C)NC(=O)[C@H](Cc1cnc[nH]1)NC(=O)CNC(=O)[C@H](Cc1ccccc1)NC(=O)[C@H](Cc1ccc(O)cc1)NC(=O)[C@@H](NC(=O)[C@H](C)NC(=O)[C@H](CCC(=O)O)NC(=O)CCC(=O)O)C(C)C)C(=O)N[C@H](C(=O)N[C@@H](Cc1c[nH]c2ccccc12)C(=O)O)[C@@H](C)CC (Suc-EAVYFGHLDIIW-OH) |
